{"source": "patent US12636371B2", "about": "“Chemically coupled transporter for low-hydrophobicity bioactive drugs into the central nervous system” (Skybio LLC, priority 2021, dated 2026)", "key": {"E. coli DH5α": {"system": "E. coli DH5α", "test": "Antibiotic activity by disc diffusion assay (MIC)", "assay_type": "cell-based", "details": "for MIC: Escherichia coli; for RATE MIC Compound/Doxycycline: ratio of MIC to doxycycline MIC", "description": "In order to examine the antibiotic activity of the compounds synthesized in Example 1, an assay was performed using E. coli DH5α (Gram(−)), as a sensitive, indicator strain.\nThe antibacterial activities of test compounds were evaluated using the disc diffusion method (Kavanagh, F. Dilution methods of antibiotic assays in Analytical Microbiology. 1963; Pomares M F, Vincent P A, Farías R N, Salomón R A. Protective action of ppGpp in microcin J25-sensitive strains. J Bacteriol. 2008-190:4328-34). Briefly, filter-paper discs impregnated with 10 μl of two-fold serial dilutions of the test compounds, and were placed onto LB solid medium Petri dishes. Then, aliquots (50 μl) of an E. coli DH5α culture in stationary phase were mixed with 3 ml of top agar (0.7% agar) and overlaid onto the plates. After overnight incubation at 37° C., the plates were examined for different degrees of inhibition. Inhibition degrees produced by the test compound are expressed as Minimum Inhibitory Concentrations (MICs), defined as the lowest concentration of a compound that inhibit visible growth of bacteria. Each test was performed in duplicate vs. the reference compound Doxycycline."}, "D2 dopamine receptor": {"biological_target": "D2 dopamine receptor (Homo sapiens, UniProt P14416)", "sequence (P14416 whole entry)": "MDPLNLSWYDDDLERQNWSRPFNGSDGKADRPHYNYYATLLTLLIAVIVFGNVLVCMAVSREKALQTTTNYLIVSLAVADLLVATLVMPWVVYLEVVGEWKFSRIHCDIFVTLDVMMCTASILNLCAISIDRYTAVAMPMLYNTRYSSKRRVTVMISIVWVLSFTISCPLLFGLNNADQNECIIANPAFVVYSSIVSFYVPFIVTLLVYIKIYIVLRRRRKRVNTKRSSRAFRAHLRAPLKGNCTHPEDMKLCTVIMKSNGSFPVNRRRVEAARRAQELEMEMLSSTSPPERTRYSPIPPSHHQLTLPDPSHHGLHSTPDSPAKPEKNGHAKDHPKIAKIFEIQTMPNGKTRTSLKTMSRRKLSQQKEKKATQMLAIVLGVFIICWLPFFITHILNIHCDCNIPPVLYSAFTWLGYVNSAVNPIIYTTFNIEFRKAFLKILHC", "test": "D2 receptor agonist assay, cAMP Nomad biosensor, U2OS_cAMPNmd_FP650_D2 cells", "assay_type": "cell-based", "details": "24 h, 10 serial 1:3 dilutions from 30 μM, triplicate", "description": "HEK_cAMPNmd_FP650_D1 and U2OS_cAMPNmd_FP650_D2 cells were seeded at a density of 30.000 and 20.000 cells/well, respectively, in 96-well plates. Cells were maintained in DMEM or DMEM-F12 medium supplemented with 10% FBS during 24 h at 37° C. in a humidified 5% CO2 atmosphere.\nCells were then incubated for 24 h.\nTo detect Nomad biosensor activation, the assay medium was removed and replaced by […] of DPBS with calcium and magnesium. […] In U2OS_cAMPNmd_FP650_D2 cells, images were acquired using the CellInsight CX7 HCS Platform, and the number of fluorescent vesicles per cell was quantified with the HCS Studio Cell Analysis Software.\nThe effect of the compounds in the regulation of D1 or D2 receptors' activation was analyzed measuring the CAMP signaling using the Nomad biosensor-based assay.\nThis same experiment was carried out in the U2OS_cAMPNmd_FP650_D2 cell line (FIG. 10). The effect of the compounds was analyzed quantifying the number of fluorescent vesicles in the cytoplasm of the cells using the HCS Studio Cell Analysis Software."}, "D1 dopamine receptor": {"biological_target": "D1 dopamine receptor (Homo sapiens, UniProt P21728)", "sequence (P21728 whole entry)": "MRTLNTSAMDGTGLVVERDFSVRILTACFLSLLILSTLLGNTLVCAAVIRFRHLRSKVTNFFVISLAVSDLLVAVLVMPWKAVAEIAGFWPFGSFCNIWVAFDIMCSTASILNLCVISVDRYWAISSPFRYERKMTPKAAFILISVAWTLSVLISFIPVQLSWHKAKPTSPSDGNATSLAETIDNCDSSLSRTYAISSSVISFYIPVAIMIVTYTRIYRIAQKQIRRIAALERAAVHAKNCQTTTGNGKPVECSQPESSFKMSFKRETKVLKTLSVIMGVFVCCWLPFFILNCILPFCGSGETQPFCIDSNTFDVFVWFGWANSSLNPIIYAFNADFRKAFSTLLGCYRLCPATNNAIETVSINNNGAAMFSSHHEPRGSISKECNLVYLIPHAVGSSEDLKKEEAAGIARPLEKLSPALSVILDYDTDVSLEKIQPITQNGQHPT", "test": "D1 receptor agonist assay, cAMP Nomad biosensor, HEK_cAMPNmd_FP650_D1 cells", "details": "24 h, 10 serial 1:3 dilutions from 30 μM, triplicate", "experimental": "To detect Nomad biosensor activation, the assay medium was removed and replaced by 100 ml of DPBS with calcium and magnesium. […] In U2OS_cAMPNmd_FP650_D2 cells, images were acquired using the CellInsight CX7 HCS Platform, and the number of fluorescent vesicles per cell was quantified with the HCS Studio Cell Analysis Software."}, "SH-SY5Y cells": {"system": "SH-SY5Y cells", "test": "CellROX assay of intracellular reactive oxygen species induced by ASf", "assay_type": "cell-based", "details": "10 μM compound alone, 24 h", "description": "In order to characterize the antioxidant properties of D9, its protective action on the AS-induced production of reactive oxygen species (ROS) in a cellular model was assessed. For this, SH-SY5Y cells were treated with fibrils of AS (ASf) (AS incubated 120 h at 37° C. and 600 rpm), and the reactive oxygen species produced were examined using the CellROX® Orange Reagent (Invitrogen), which undergoes oxidation by ROS to form a stable fluorescent compound.\nIn addition, cells were also treated with doxycycline 10 μM+7 μM ASf (ASf+Doxy) as a positive control, and 10 μM doxycycline alone (Doxy). All conditions were incubated 24 h at 37° C. and 5% CO2. […] Fluorescent images of randomly chosen fields were acquired with identical acquisition parameters using a Zeiss Axio Vert.A1 inverted fluorescence microscope."}, "[1]": {"details": "disc diffusion, two-fold serial dilutions from 2 mg/ml, LB solid medium, overnight 37° C., read-out: MIC"}}, "note": "Where two headings read alike, the source gives them in different places."}
{"compound": "C[C@H]1c2cccc(O)c2C(=O)C2=C(O)[C@]3(O)C(=O)C(C(N)=O)=C(O)CC3[C@@H](O)C21", "note": "(some centres unmarked) [Compound D3, 4-dedimethylaminodoxycycline]", "values": [{"measurement": "MIC", "setting": "E. coli DH5α", "result": 500, "unit": "µg/mL"}, {"measurement": "RATE MIC Compound/Doxycycline", "setting": "E. coli DH5α", "result": 16}]}
{"compound": "C[C@H]1c2ccc(N)c(O)c2C(=O)C2=C(O)[C@]3(O)C(=O)C(C(N)=O)=C(O)CC3[C@@H](O)C21", "note": "(some centres unmarked) [Compound D5, 9-amino-4-dedimethylamino doxycycline]", "values": [{"measurement": "EC50, D2 receptor activation", "setting": "D2 dopamine receptor", "result": "did not act as an agonist of the D2 receptor"}, {"measurement": "EC50, D1 receptor activation", "setting": "D1 dopamine receptor", "result": "did not act as an agonist of the D1 receptor"}, {"measurement": "MIC", "setting": "E. coli DH5α; [1]", "result": 250, "unit": "µg/mL"}, {"measurement": "RATE MIC Compound/Doxycycline", "setting": "E. coli DH5α", "result": 8}]}
{"compound": "C[C@H]1c2cccc(O)c2C(=O)C2=C(O)[C@]3(O)C(=O)C(C(N)=O)=C(O)[C@@H](N(C)C)[C@@H]3[C@@H](O)[C@@H]21", "note": "[Doxycycline, reference compound]", "values": [{"measurement": "MIC", "setting": "E. coli DH5α; [1]", "result": 31.2, "unit": "µg/mL"}, {"measurement": "Intracellular ROS induced by compound alone", "setting": "SH-SY5Y cells", "result": "neither the presence of D9 nor doxycycline induced intracellular ROS"}]}
{"compound": "C[C@H]1c2cccc(O)c2C(=O)C2=C(O)[C@]3(O)C(=O)C(C(N)=O)=C(O)C(N(C)C)C3[C@@H](O)C21", "note": "(some centres unmarked) [Compound D1, Doxycycline Free Form, reference compound]", "values": [{"measurement": "MIC", "setting": "E. coli DH5α; [1]", "result": 31.2, "unit": "µg/mL"}, {"measurement": "RATE MIC Compound/Doxycycline", "setting": "E. coli DH5α", "result": 1}]}
{"compound": "C[C@H]1c2ccc(NC(=O)CCl)c(O)c2C(=O)C2=C(O)[C@]3(O)C(=O)C(C(N)=O)=C(O)CC3[C@@H](O)C21", "note": "(some centres unmarked) [Compound D6, 9-(2-chloroacetamido)-4-dedimethylamino doxycycline]", "values": [{"measurement": "MIC", "setting": "E. coli DH5α", "result": 2000, "unit": "µg/mL"}, {"measurement": "RATE MIC Compound/Doxycycline", "setting": "E. coli DH5α", "result": 64}]}
{"compound": "C[C@H]1c2ccc([N+](=O)[O-])c(O)c2C(=O)C2=C(O)[C@]3(O)C(=O)C(C(N)=O)=C(O)CC3[C@@H](O)C21", "note": "(some centres unmarked) [Compound D4, 4-dedimethylamino-9-nitro doxycycline]", "values": [{"measurement": "MIC", "setting": "E. coli DH5α; [1]", "result": 1000, "unit": "µg/mL"}, {"measurement": "RATE MIC Compound/Doxycycline", "setting": "E. coli DH5α", "result": 32}]}
